Reference: patent US10681909B2, “Herbicidal triazoles” (FMC Corporation, priority 2014, dated 2020)

Assays:
morningglory [1] = assay: Test C preemergence; assay type: in vivo, Ipomoea coccinea; conditions: for Plant response rating (scale of 0 to 100 where 0 is no effect and 100 is complete control): Morningglory, preemergence; for Morningglory plant response rating (0 to 100): Preemergence, visual rating after 13 to 15 d
Description: (§1) Seeds of plant species selected from blackgrass (Alopecurus myosuroides), ryegrass, Italian (Italian ryegrass, Lolium multiflorum), wheat (winter wheat, Triticum aestivum), galium (catchweed bedstraw, Galium aparine), corn (Zea mays), crabgrass, large (large crabgrass, Digitaria sanguinalis), foxtail, giant, (giant foxtail, Setaria faberii), johnsongrass (Sorghum halepense), lambsquarters (Chenopodium album), morningglory (Ipomoea coccinea), nutsedge, yellow (yellow nutsedge, Cyperus esculentus), pigweed (Amaranthus retroflexus), ragweed (common ragweed, Ambrosia elatior), soybean (Glycine max), barnyardgrass (Echinochloa crus-galli), oilseed rape (Brassica napus), waterhemp (common waterhemp, Amaranthus rudis), and velvetleaf (Abutilon theophrasti) were planted into a blend of loam soil and sand and treated preemergence with test chemicals formulated in a non-phytotoxic solvent mixture which included a surfactant. At the same time, plants selected from these crop and weed species and also chickweed (common chickweed, Stellaria media), oat, wild (wild oat, Avena fatua), and kochia (Kochia scoparia), were planted in pots containing Sunshine Redi-Earth® planting medium comprising spaghnum peat moss, vermiculite, starter nutrients and dolomitic limestone and treated with postemergence applications of test chemicals formulated in the same manner. Plants ranged in height from 2 to 18 cm (1- to 4-leaf stage) for postemergence treatments. […] A dash (-) response means no test result.

kochia [2] = assay: Test D preemergence; assay type: in vivo, Kochia scoparia; conditions: for Plant response rating (0 to 100), Kochia: 16 g ai/ha, 0 is no effect, 100 is complete control; for Plant response rating: Kochia: scale 0 to 100
Description: (§2) Seeds of plant species selected from bluegrass (annual bluegrass, Poa annua), blackgrass (Alopecurus myosuroides), canarygrass (Phalaris minor), chickweed (common chickweed, Stellaria media), galium (catchweed bedstraw, Galium aparine), bromegrass, down (downy bromegrass, Bromus tectorum), Russian thistle (Salsola kali), field poppy (Papaver rhoeas), field violet (Viola arvensis), foxtail, green (green foxtail, Setaria viridis), deadnettle (henbit deadnettle, Lamium amplexicaule), ryegrass, Ital. (Italian ryegrass, Lolium multiflorum), kochia (Kochia scoparia), lambsquarters (Chenopodium album), oilseed rape (Brassica napus), pigweed (Amaranthus retroflexus), chamomile (scentless chamomile, Matricaria inodora), speedwell (bird's-eye speedwell, Veronica persica), barley, spring (spring barley, Hordeum vulgare), wheat, spring (spring wheat, Triticum aestivum), buckwheat, wild (wild buckwheat, Polygonum convolvulus), wild mustard (Sinapis arvensis), oat, wild (wild oat, Avena fatua), radish, wild (wild radish, Raphanus raphanistrum), […]), barley, winter (winter barley, Hordeum vulgare), and wheat, winter (winter wheat, Triticum aestivum) were planted into a silt loam soil and treated preemergence with test chemicals formulated in a non-phytotoxic solvent mixture which included a surfactant. At the same time, these species were planted in pots containing Sunshine Redi-Earth® planting medium comprising spaghnum peat moss, vermiculite, starter nutrients and dolomitic limestone and treated with postemergence applications of the test chemicals formulated in the same manner. Plants ranged in height from 2 to 18 cm (1- to 4-leaf stage). Treated plants and controls were maintained in a controlled growth environment for 14 to 21 d after which time all species were compared to controls and visually evaluated. […] A dash (-) response means no test result.

kochia [3] = assay: Test D postemergence; assay type: in vivo, Kochia scoparia; conditions: scale 0 to 100
Description: as §2

ragweed = assay: Test C preemergence; assay type: in vivo, Ambrosia elatior; conditions: for Ragweed plant response rating (0 to 100): Preemergence, visual rating after 13 to 15 d; for Plant response rating (scale of 0 to 100 where 0 is no effect and 100 is complete control): Ragweed, preemergence
Description: as §1

speedwell = assay: Test D postemergence; assay type: in vivo, Veronica persica; conditions: scale 0 to 100
Description: as §2

morningglory [4] = assay: Test E preemergence; assay type: in vivo, Ipomoea coccinea; conditions: scale 0 to 100
Description: (§3) Seeds of plant species selected from corn (Zea mays), soybean (Glycine max), lambsquarters (Chenopodium album), poinsettia, wild (wild poinsettia, Euphorbia heterophylla), pigweed, palmer (palmer pigweed, Amaranthus palmeri), waterhemp (common waterhemp, Amaranthus rudis), surinam grass (Brachiaria decumbens), crabgrass, large (large crabgrass, Digitaria sanguinalis), crabgrass, Brazilian (Brazilian crabgrass, Digitaria horizontalis), panicum, fall (fall panicum, Panicum dichotomiflorum), foxtail, giant (giant foxtail, Setaria faberii), foxtail, green (green foxtail, Setaria viridis), goosegrass (Eleusine indica), johnsongrass (Sorghum halepense), ragweed (common ragweed, Ambrosia elatior), barnyardgrass (Echinochloa crus-galli), sandbur (southern sandbur, Cenchrus echinatus), arrowleaf sida (Sida rhombifolia), ryegrass, Italian (Italian ryegrass, Lolium multiflorum), dayflower, VA (Virginia dayflower, Commelina virginica), field bindweed (Convolvulus arvensis), cocklebur (common cocklebur, Xanthium strumarium), morningglory (Ipomoea coccinea), nightshade (eastern black nightshade, Solanum ptycanthum), kochia (Kochia scoparia), nutsedge, yellow (yellow nutsedge, Cyperus esculentus), smartweed (ladysthumb smartweed, Polygonum persicaria), velvetleaf (Abutilon theophrasti), horseweed (Conyza canadensis), and beggarticks (hairy beggarticks, Bidens pilosa), were planted into a silt loam soil and treated preemergence with test chemicals formulated in a non-phytotoxic solvent mixture which included a surfactant.
(§4) At the same time, plants from these crop and weed species and also waterhemp_RES1, (ALS & Triazine resistant common waterhemp, Amaranthus rudis), and waterhemp_RES2, (ALS & HPPD resistant common waterhemp, Amaranthus rudis) were planted in pots containing Sunshine Redi-Earth® planting medium comprising spaghnum peat moss, vermiculite, starter nutrients and dolomitic limestone were treated with postemergence applications of test chemicals formulated in the same manner. Plants ranged in height from 2 to 18 cm for postemergence treatments (1- to 4-leaf stage). Treated plants and controls were maintained in a greenhouse for 14 to 21 d, after which time all species were compared to controls and visually evaluated. Plant response ratings, summarized in Table E, are based on a scale of 0 to 100 where 0 is no effect and 100 is complete control. A dash (-) response means no test result.

sandbur = assay: Test E preemergence; assay type: in vivo, Cenchrus echinatus; conditions: scale 0 to 100
Description: as §3, §4

windgrass = assay: Test D postemergence; assay type: in vivo, Apera spica-venti; conditions: scale 0 to 100
Description: as §2

crabgrass, Brazilian = assay: Test E preemergence; assay type: in vivo, Digitaria horizontalis; conditions: Brazil, scale 0 to 100
Description: as §3, §4

poinsettia, wild = assay: Test E preemergence; assay type: in vivo, Euphorbia heterophylla; conditions: scale 0 to 100
Description: as §3, §4

SMILES	Plant response rating (scale of 0 to 100 where 0 is no effect and 100 is complete control) (morningglory [1]; 125 g ai/ha)	Plant response rating (scale of 0 to 100 where 0 is no effect and 100 is complete control) (morningglory [1]; 250 g ai/ha)	Morningglory plant response rating (0 to 100) (morningglory [1]; 31 g ai/ha)	Morningglory plant response rating (0 to 100) (morningglory [1]; 62 g ai/ha)	Plant response rating (0 to 100), Kochia (kochia [2])	Plant response rating: Kochia (kochia [2]; 62 g ai/ha)	Plant response rating: Kochia (kochia [2]; 125 g ai/ha)	Ragweed plant response rating (0 to 100) (ragweed; 31 g ai/ha)	Ragweed plant response rating (0 to 100) (ragweed; 62 g ai/ha)	Plant response rating (scale of 0 to 100 where 0 is no effect and 100 is complete control) (ragweed; 125 g ai/ha)	Plant response rating (scale of 0 to 100 where 0 is no effect and 100 is complete control) (ragweed; 250 g ai/ha)	Plant response rating (morningglory [4]; 31 g ai/ha)	Plant response rating (morningglory [4]; 62 g ai/ha)	Plant response rating (morningglory [4]; 125 g ai/ha)	Plant response rating (sandbur; 31 g ai/ha)	Plant response rating (sandbur; 62 g ai/ha)	Plant response rating (sandbur; 125 g ai/ha)	Plant response rating (crabgrass, Brazilian; 31 g ai/ha)	Plant response rating (crabgrass, Brazilian; 62 g ai/ha)	Plant response rating (crabgrass, Brazilian; 125 g ai/ha)	also measured
CCOc1nc(-c2ccccc2)nn1Cc1ccnc(C(F)(F)F)c1 [Compound 27]	100	95	20	80	85	95	100	50	50	98	98	25	35	35	35	75	98	100	100	100	Plant response rating: Kochia (kochia [3]; 16 g ai/ha): 85; Plant response rating: Kochia (kochia [3]; 31 g ai/ha): 95; Plant response rating: Kochia (kochia [3]; 62 g ai/ha): 95; Plant response rating: Kochia (kochia [3]; 125 g ai/ha): 100; Plant response rating: Speedwell (speedwell; 16 g ai/ha): 75; Plant response rating: Speedwell (speedwell; 31 g ai/ha): 85; Plant response rating: Speedwell (speedwell; 62 g ai/ha): 95; Plant response rating: Speedwell (speedwell; 125 g ai/ha): 95; Plant response rating (morningglory [4]; 16 g ai/ha): 15; Plant response rating (sandbur; 16 g ai/ha): 35; Plant response rating: Windgrass (windgrass; 16 g ai/ha): 60; Plant response rating: Windgrass (windgrass; 31 g ai/ha): 65; Plant response rating: Windgrass (windgrass; 62 g ai/ha): 70; Plant response rating: Windgrass (windgrass; 125 g ai/ha): 70; Plant response rating (crabgrass, Brazilian; 16 g ai/ha): 90
Fc1ccc(-c2nc(OCC(F)(F)F)n(Cc3ccnc(C(F)(F)F)c3)n2)cc1 [Compound 30]	60	90	35	35	85	90	95	55	65	80	90	25	15	15	35	65	90	90	100	100	Plant response rating: Kochia (kochia [3]; 16 g ai/ha): 85; Plant response rating: Kochia (kochia [3]; 31 g ai/ha): 90; Plant response rating: Kochia (kochia [3]; 62 g ai/ha): 90; Plant response rating: Kochia (kochia [3]; 125 g ai/ha): 95; Plant response rating: Speedwell (speedwell; 16 g ai/ha): 100; Plant response rating: Speedwell (speedwell; 31 g ai/ha): 100; Plant response rating: Speedwell (speedwell; 62 g ai/ha): 100; Plant response rating: Speedwell (speedwell; 125 g ai/ha): 100; Plant response rating (morningglory [4]; 250 g ai/ha): 65; Plant response rating (sandbur; 250 g ai/ha): 95; Plant response rating: Windgrass (windgrass; 16 g ai/ha): 45; Plant response rating: Windgrass (windgrass; 31 g ai/ha): 65; Plant response rating: Windgrass (windgrass; 62 g ai/ha): 75; Plant response rating: Windgrass (windgrass; 125 g ai/ha): 85; Plant response rating (crabgrass, Brazilian; 250 g ai/ha): 100
CCCc1nc(-c2ccc(F)cc2)nn1Cc1ccnc(C(F)(F)F)c1 [Compound 6, 4-[[3-(4-fluorophenyl)-5-propyl-1H-1,2,4-triazol-1-yl]methyl]-2-(trifluoromethyl)pyridine]	75	100	45	60	–	–	–	20	20	55	80	10	10	30	40	50	70	80	100	100	Plant response rating (sandbur; 16 g ai/ha): 10; Plant response rating (sandbur; 250 g ai/ha): 80; Plant response rating (poinsettia, wild; 16 g ai/ha): 15; Plant response rating (poinsettia, wild; 31 g ai/ha): 30; Plant response rating (poinsettia, wild; 62 g ai/ha): 50; Plant response rating (poinsettia, wild; 125 g ai/ha): 50; Plant response rating (poinsettia, wild; 250 g ai/ha): 95; Plant response rating (crabgrass, Brazilian; 16 g ai/ha): 75; Plant response rating (crabgrass, Brazilian; 250 g ai/ha): 100
